Experimental data from PubChem BioAssay AID1963963 (Molecular Pharmacology Branch, DTP, NCI, 2024).
“And” between values parts separate entries of the source, which are not always exact repeats. Equal entries are not always repeated.

Test system: 958667-338-R-J2-PDC tumor spheroids viability
Test: Anticancer human tumor 958667-338-R-J2-PDC patient-derived colon adenocarcinoma cell line growth inhibition [PI3K]
Conditions: spheroids with HUVEC and MSC; for viability, T/C: stronger effect = lower value; active means viability on the fitted dose curve at most 10% of control; inactive means the rest
How it was run: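 Combination activity was assessed by viability in multicellular tumor spheroids carrying HUVEC and MSC components. Agents were tested with PI3K inhibitors from a Cmax-based top dose (or 10 microM) downward in half-log increments.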

[1] = curve of first compound, second compound 0.0316 µM
[2] = curve of first compound, second compound 0.1 µM
[3] = curve of first compound, second compound 0.316 µM
[4] = curve of first compound, second compound 1 µM
[5] = second compound 0.0316 µM, first compound 0.0316 µM
[6] = second compound 0.0316 µM, first compound 0.1 µM
[7] = second compound 0.1 µM, first compound 0.0316 µM
[8] = second compound 0.1 µM, first compound 0.1 µM
[9] = second compound 0.316 µM, first compound 0.0316 µM
[10] = second compound 0.316 µM, first compound 0.1 µM
[11] = second compound 1 µM, first compound 0.0316 µM
[12] = second compound 1 µM, first compound 0.1 µM
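Further: spheroids exposed to compounds for seven days before readout.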

C[C@@H](NC(=O)c1ncnc(N)c1Cl)c1ncc(C(=O)Nc2cc(C(F)(F)F)c(Cl)cn2)s1 + COc1c(OCCCN2CCOCC2)ccc2c3n(c(=NC(=O)c4cnc(N)nc4)nc12)CCN3
< 0.0316 µM: IC50 [3] | IC50 [4]
> 10 µM: IC50 (curve of first compound, second compound 0.00316 µM) | IC50 (curve of first compound, second compound 0.01 µM) | IC50 [1] | IC50 [2]
inactive: viability, T/C (second compound 0.00316 µM, first compound 0.0316 µM) 96.1% | viability, T/C (second compound 0.00316 µM, first compound 0.1 µM) 88.5% | viability, T/C (second compound 0.00316 µM, first compound 0.316 µM) 107% | viability, T/C (second compound 0.00316 µM, first compound 1 µM) 110% | viability, T/C (second compound 0.00316 µM, first compound 3.16 µM) 116% | viability, T/C (second compound 0.00316 µM, first compound 10 µM) 66.7% | viability, T/C (second compound 0.01 µM, first compound 0.0316 µM) 96.3% | viability, T/C (second compound 0.01 µM, first compound 0.1 µM) 96.8% | viability, T/C (second compound 0.01 µM, first compound 0.316 µM) 111% | viability, T/C (second compound 0.01 µM, first compound 1 µM) 89.5% | viability, T/C (second compound 0.01 µM, first compound 3.16 µM) 69.9% | viability, T/C (second compound 0.01 µM, first compound 10 µM) 72.1% | viability, T/C [5] 78.9% | viability, T/C [6] 88.3% | viability, T/C (second compound 0.0316 µM, first compound 0.316 µM) 77.5% | viability, T/C (second compound 0.0316 µM, first compound 1 µM) 84.3% | viability, T/C (second compound 0.0316 µM, first compound 3.16 µM) 86.1% | viability, T/C (second compound 0.0316 µM, first compound 10 µM) 76.2% | viability, T/C [7] 62.2% | viability, T/C [8] 70.8% | viability, T/C (second compound 0.1 µM, first compound 0.316 µM) 68.1% | viability, T/C (second compound 0.1 µM, first compound 1 µM) 82.1% | viability, T/C (second compound 0.1 µM, first compound 3.16 µM) 83.2% | viability, T/C (second compound 0.1 µM, first compound 10 µM) 59.8% | viability, T/C [9] 34.3% | viability, T/C [10] 37.2% | viability, T/C (second compound 0.316 µM, first compound 0.316 µM) 44.1% | viability, T/C (second compound 0.316 µM, first compound 1 µM) 42% | viability, T/C (second compound 0.316 µM, first compound 3.16 µM) 57.3% | viability, T/C (second compound 0.316 µM, first compound 10 µM) 34.2% | viability, T/C [11] 20.4% | viability, T/C [12] 19.5% | viability, T/C (second compound 1 µM, first compound 0.316 µM) 20.1% | viability, T/C (second compound 1 µM, first compound 1 µM) 20.9% | viability, T/C (second compound 1 µM, first compound 3.16 µM) 15.2% | viability, T/C (second compound 1 µM, first compound 10 µM) 5.92%

CC(Nc1ccc2c(c1)OCCn1cc(N3C(=O)OCC3C(F)F)nc1-2)C(N)=O (stereo not drawn)
inactive: viability, T/C (compound 0.01 µM) 100% [middle of 7 runs] | viability, T/C (compound 0.0316 µM) 96.9% [middle of 7 runs] | viability, T/C (compound 0.1 µM) 80.8% [middle of 7 runs] | viability, T/C (compound 0.316 µM) 70.7% [middle of 7 runs] | viability, T/C (compound 1 µM) 64.9% [middle of 7 runs]
> 1 µM: IC50 (compound alone, run of 06/12/2023)

CC(=O)c1c(C)c2cnc(Nc3ccc(N4CCNCC4)cn3)nc2n(C2CCCC2)c1=O + Cc1nc(NC(=O)N2CCCC2C(N)=O)sc1-c1ccnc(C(C)(C)C(F)(F)F)c1
inactive: viability, T/C (second compound 0.0316 µM, first compound 0.000316 µM) 104% | viability, T/C (second compound 0.0316 µM, first compound 0.001 µM) 77.1% | viability, T/C (second compound 0.0316 µM, first compound 0.00316 µM) 96% | viability, T/C (second compound 0.0316 µM, first compound 0.01 µM) 94.3% | viability, T/C [5] 95.8% | viability, T/C [6] 73.7% | viability, T/C (second compound 0.1 µM, first compound 0.000316 µM) 97.2% | viability, T/C (second compound 0.1 µM, first compound 0.001 µM) 96.8% | viability, T/C (second compound 0.1 µM, first compound 0.00316 µM) 106% | viability, T/C (second compound 0.1 µM, first compound 0.01 µM) 88.7% | viability, T/C [7] 103% | viability, T/C [8] 94.7% | viability, T/C (second compound 0.316 µM, first compound 0.000316 µM) 104% | viability, T/C (second compound 0.316 µM, first compound 0.001 µM) 83.1% | viability, T/C (second compound 0.316 µM, first compound 0.00316 µM) 84.4% | viability, T/C (second compound 0.316 µM, first compound 0.01 µM) 91.5% | viability, T/C [9] 78.1% | viability, T/C [10] 73.7% | viability, T/C (second compound 1 µM, first compound 0.000316 µM) 87.8% | viability, T/C (second compound 1 µM, first compound 0.001 µM) 78.5% | viability, T/C (second compound 1 µM, first compound 0.00316 µM) 73.4% | viability, T/C (second compound 1 µM, first compound 0.01 µM) 62.2% | viability, T/C [11] 74.5% | viability, T/C [12] 66.2% | viability, T/C (second compound 3.16 µM, first compound 0.000316 µM) 72% | viability, T/C (second compound 3.16 µM, first compound 0.001 µM) 74% | viability, T/C (second compound 3.16 µM, first compound 0.00316 µM) 59.3% | viability, T/C (second compound 3.16 µM, first compound 0.01 µM) 67.2% | viability, T/C (second compound 3.16 µM, first compound 0.0316 µM) 70.3% | viability, T/C (second compound 3.16 µM, first compound 0.1 µM) 71.9% | viability, T/C (second compound 10 µM, first compound 0.000316 µM) 52.8% | viability, T/C (second compound 10 µM, first compound 0.001 µM) 55.5% | viability, T/C (second compound 10 µM, first compound 0.00316 µM) 52.2% | viability, T/C (second compound 10 µM, first compound 0.01 µM) 55.4% | viability, T/C (second compound 10 µM, first compound 0.0316 µM) 51.4% | viability, T/C (second compound 10 µM, first compound 0.1 µM) 58.5%
> 0.1 µM: IC50 [1] | IC50 [2] | IC50 [3] | IC50 [4] | IC50 (curve of first compound, second compound 3.16 µM) | IC50 (curve of first compound, second compound 10 µM)

CC(C)NCC(C(=O)N1CCN(c2ncnc3c2C(C)CC3O)CC1)c1ccc(Cl)cc1 (stereo not drawn)
> 10 µM: IC50 (curve of compound)
inactive: viability, T/C (compound 0.0316 µM) 99.2% and 102% and 101% | viability, T/C (compound 0.1 µM) 92.6% and 114% and 87.9% | viability, T/C (compound 0.316 µM) 101% and 113% and 108% | viability, T/C (compound 1 µM) 78.6% and 73.4% and 101% | viability, T/C (compound 3.16 µM) 78.8% and 72.3% and 119% | viability, T/C (compound 10 µM) 72.2% and 69.7% and 80.9%

CNC(=O)c1ccc(N2C(=S)N(c3ccc(C#N)c(C(F)(F)F)c3)C(=O)C2(C)C)cc1F
> 10 µM: IC50 (curve of compound)
inactive: viability, T/C (compound 0.0316 µM) 110% [middle of 4 runs] | viability, T/C (compound 0.1 µM) 97% [middle of 4 runs] | viability, T/C (compound 1 µM) 112% and 103% (2×) and 100% | viability, T/C (compound 3.16 µM) 95.8% and 104% and 124% (2×) | viability, T/C (compound 10 µM) 103% (2×) and 115% and 88.7%
